43 molecules from patent US9243281B2, “Neuroprotective chemicals and methods for identifying and using same” (Board of Regents of The University of Texas System, priority 2013, dated 2016) can be followed below.

One experiment addresses T1, p70 (NAMPT) (Homo sapiens, UniProt P43490).
T1 construct: endogenous in cells; host or cells: H2122 lung cancer cells
Nature of the experiment: binding competition for photo-crosslinking of P7C3-S326 to p70 in H2122 cells. The following applies: 0.3 μM P7C3-S326 plus 5 μM competitor, p70 band intensity, P7C3-S326 alone compared with plus competitor, vehicle 1.0. As to the method:
Cultured cells were co-exposed to P7C3-S326 (0.3 uM) and the individual P7C3 variants (5 uM), exposed to UV light, lysed, clicked to a fluorescent dye and run on SDS gels (FIG. 11).
P7C3-S326 was diluted to 0.3 μM in culture medium to treat H2122 cells. After incubation at 37° C. for 2 hours, H2122 cells were irradiated for 15 minutes under 306 nm ultraviolet light in a Stratalinker 2400 (Stratagene). Cells were then harvested by dissolving in 1% SDS lysis buffer 50 mM HEPES, pH 8.0, 2 mM MgCl2, 10 mM KCl, 1% SDS, 50 units/ml of Benzonase (Sigma), supplemented with Sigmafast protease inhibitor (Sigma).
The reaction was incubated at room temperature with constant agitation at 1,000 rpm on a thermomixer (Eppendorf) for 1 hour. Samples were then mixed with SDS sample loading buffer and loaded on an 8% SDS-PAGE gel, separated, and imaged using a Typhoon imager (filter settings: excitation 533 nm, emission 555 nm, and high sensitivity).
H2122 cells were incubated with the P7C3-S326 (0.3 μM) in the absence or presence of P7C3 analogs for 2 hours following by UV crosslinking. […] The samples were run on SDS-PAGE gels scanned using a Typhoon Imager. The p70 band intensity was analyzed and quantified by Image J, and the relative intensity in each assay was normalized to that of the DMSO control.

For experiment [1], the system named is hippocampal neurogenesis (Dentate Gyrus). Nature of the experiment: in vivo neurogenesis assay (BrdU+ cells in dentate gyrus). Also on record: species or system mice. The following applies: living mice; vehicle (DMSO) 7.3. An excerpt:
The screen was simple in concept. With help from chemists in the Department of Biochemistry at UTSWMC, we selected 1,000 druglike chemicals from the 250,000 compounds in our high throughput screening center. The compounds were selected to preserve representative chemical diversity of the entire library. They were further selected to enhance the representation of chiral molecules, and to avoid untoward chemical properties such as reactive moieties. The 1,000 molecules were randomly pooled into groups of ten, and each pool was administered directly into the left ventricle of two adult mice. Intracranial delivery was facilitated by stereotactic positioning of a canula fed directly by an Alzet mini-pump containing the mixture of ten chemicals. The drug mixture was administered over a week-long period at concentrations anticipated to deliver mid-nanomolar levels of the ten test compounds. Daily injections of the thymidine analog, bromodeoxyuridine (BrdU), were coadministered in order to monitor the formation of new hippocampal nerve cells. Following compound administration, animals were sacrificed such that brain tissue could be recovered, sectioned and stained with antibodies to BrdU. […]

T1 sequence (P43490 whole entry): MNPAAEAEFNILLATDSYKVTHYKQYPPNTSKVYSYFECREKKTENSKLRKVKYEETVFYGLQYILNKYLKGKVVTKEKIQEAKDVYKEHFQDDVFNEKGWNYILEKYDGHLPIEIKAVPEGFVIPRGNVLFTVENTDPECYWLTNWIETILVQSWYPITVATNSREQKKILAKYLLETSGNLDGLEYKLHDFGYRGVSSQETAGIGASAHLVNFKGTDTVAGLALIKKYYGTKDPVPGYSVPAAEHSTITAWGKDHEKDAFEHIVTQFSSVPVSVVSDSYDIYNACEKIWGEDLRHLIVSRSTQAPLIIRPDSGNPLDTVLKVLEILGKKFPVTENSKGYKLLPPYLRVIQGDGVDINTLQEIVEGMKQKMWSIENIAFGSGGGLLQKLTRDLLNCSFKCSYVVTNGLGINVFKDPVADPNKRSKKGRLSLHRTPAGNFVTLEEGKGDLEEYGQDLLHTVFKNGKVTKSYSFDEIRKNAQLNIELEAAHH

For the molecule `CC(C)(C)OC(=O)CCOCCOCCOCCOc1ccc(S(=O)(=O)CC(O)Cn2c3ccc(Br)cc3c3cc(Br)ccc32)cc1` (centres unmarked) [S130], the Binding competition at p70 (NAMPT) was determined as 2.9.
For `COc1ccc2[nH]c3ccc(Br)cc3c2c1` [S209], the “Neurogenesis # BrdU+ Cells (X10E06)/mm3 Dentate Gyrus” value (“Neurogenesis # BrdU+ Cells” for short) in experiment [1] is given as 15.0 (X10E06)/mm3. Also, at p70 (NAMPT), the Binding competition worked out at 3.7.
As to `CNCCC(Oc1ccc(C(F)(F)F)cc1)c1ccccc1` (centres unmarked) [S122, Prozac, reference compound], the “Neurogenesis # BrdU+ Cells” value in experiment [1] is listed as 10.0 (X10E06)/mm3. Besides, the Binding competition at p70 (NAMPT) was determined as 1.4.
As for `O=C(O)Cn1c2ccc(Br)cc2c2cc(C(=O)O)ccc21` [S239], in experiment [1], the “Neurogenesis # BrdU+ Cells” value is reported as 11.4 (X10E06)/mm3. Moreover, on p70 (NAMPT), the Binding competition worked out at 0.9.
For `Cc1cc(C)n(CC(O)Cn2c3ccc(Br)cc3c3cc(Br)ccc32)n1` (centres unmarked) [S25], the “Neurogenesis # BrdU+ Cells” value in experiment [1] is reported as 7.0 (X10E06)/mm3. Further, the Binding competition on p70 (NAMPT) stood at 1.4.
For `O=S(=O)(CC(O)Cn1c2ccc(Br)cc2c2cc(Br)ccc21)c1cccc(O)c1` (centres unmarked) [S93], the “Neurogenesis # BrdU+ Cells” value in experiment [1] was 11.9 (X10E06)/mm3. In addition, on p70 (NAMPT), the Binding competition was determined as 1.4.
In the same order, the values of `COc1ccc(NCC(F)Cn2c3ccc(Br)cc3c3cc(Br)ccc32)cc1` (centres unmarked) [S60] are 12.6 (X10E06)/mm3 and 1.4.
On to `CN[C@H]1CC[C@@H](c2ccc(Cl)c(Cl)c2)c2ccccc21` [S123, Zoloft, reference compound], for which the “Neurogenesis # BrdU+ Cells” value in experiment [1] is given as 9.4 (X10E06)/mm3. Moreover, the Binding competition at p70 (NAMPT) was 1.5.
For the molecule `N#CN1CCc2c(c3cc(Br)ccc3n2CC(O)COc2ccccc2)C1` (centres unmarked) [S107], in experiment [1], the “Neurogenesis # BrdU+ Cells” value is 7.3 (X10E06)/mm3. For the same molecule, the Binding competition on p70 (NAMPT) came out at 3.5.
In the case of `CC(C)(O)Cn1c2ccc(Br)cc2c2cc(Br)ccc21` [S169], in experiment [1], the “Neurogenesis # BrdU+ Cells” value is recorded as 9.2 (X10E06)/mm3. Also, the Binding competition on p70 (NAMPT) was determined as 3.0.
As for `COc1cccc(NCC(O)Cn2c3ccccc3c3cc(Br)ccc32)c1` (centres unmarked) [S29], the “Neurogenesis # BrdU+ Cells” value in experiment [1] was 9.5 (X10E06)/mm3. Further, the Binding competition at p70 (NAMPT) is listed as 4.2.
In the same order, the values of `O=S(=O)(C[C@H](O)Cn1c2ccc(Br)cc2c2cc(Br)ccc21)c1ccccc1` [S51] are 13.2 (X10E06)/mm3 and 2.4.
The corresponding values for `O=S(=O)(CC(O)Cn1c2ccc(Br)cc2c2cc(Br)ccc21)c1ccc(O)cc1` (centres unmarked) [S94] are 8.5 (X10E06)/mm3 and 3.8.
As to `NC(COc1ccccc1)Cn1c2ccc(Br)cc2c2cc(Br)ccc21` (centres unmarked) [S97], in experiment [1], the “Neurogenesis # BrdU+ Cells” value is recorded as 7.6 (X10E06)/mm3. Further, the Binding competition on p70 (NAMPT) is 2.0.
For `NC(=O)c1ccc2c(c1)c1cc(Br)ccc1n2CC(=O)O` [S238], the “Neurogenesis # BrdU+ Cells” value in experiment [1] is reported as 9.4 (X10E06)/mm3. Besides, the Binding competition at p70 (NAMPT) stood at 0.9.
In the same order, the values of `COc1cccc(NC[C@@H](O)Cn2c3ccc(Br)cc3c3cc(Br)ccc32)c1` [S17] are 14.9 (X10E06)/mm3 and 1.9.
As for `NCC(O)CN1c2ccccc2CCc2ccccc21` (centres unmarked) [S140], the “Neurogenesis # BrdU+ Cells” value in experiment [1] was 11.7 (X10E06)/mm3. For the same molecule, the Binding competition at p70 (NAMPT) worked out at 1.2.
In the case of `OC(CN1c2ccccc2CCc2ccccc21)CN1c2ccccc2CCc2ccccc21` [S170], the “Neurogenesis # BrdU+ Cells” value in experiment [1] is listed as 11.2 (X10E06)/mm3. Also, the Binding competition on p70 (NAMPT) turned out to be 1.5.
For `COc1c(Br)cc(OC)c2c1c1cc(Br)ccc1n2CC(O)CNc1ccccc1` (centres unmarked) [S160], the “Neurogenesis # BrdU+ Cells” value in experiment [1] was 13.1 (X10E06)/mm3. Further, the Binding competition on p70 (NAMPT) was determined as 4.3.
Regarding `O=C1CC2(CCCC2)CC(=O)N1CCCCN1CCN(c2ncccn2)CC1` [S127, Buspar, reference compound], the “Neurogenesis # BrdU+ Cells” value in experiment [1] is listed as 6.9 (X10E06)/mm3. The Binding competition on p70 (NAMPT) is 1.2.
In the same order, the values of `COc1cccc(NCC(O)Cn2c3ccc(C#N)cc3c3cc(C#N)ccc32)c1` (centres unmarked) [S65] are 12.9 (X10E06)/mm3 and 3.3.
Consider `COc1cccc(N(CC(O)Cn2c3ccc(Br)cc3c3cc(Br)ccc32)S(=O)(=O)C(F)(F)F)c1` (centres unmarked) [S244], for which, in experiment [1], the “Neurogenesis # BrdU+ Cells” value was 11.6 (X10E06)/mm3. For the same molecule, the Binding competition at p70 (NAMPT) is reported as 1.1.
With `OC(COc1ccccc1)Cn1c2ccc(Br)cc2c2cc(Br)cnc21` (centres unmarked) [S187], in experiment [1], the “Neurogenesis # BrdU+ Cells” value is given as 12.6 (X10E06)/mm3. The Binding competition at p70 (NAMPT) came out at 2.9.
As to `O=C(COc1cccc(S(=O)(=O)CC(O)Cn2c3ccc(Br)cc3c3cc(Br)ccc32)c1)NCc1ccccc1` (centres unmarked) [S102], the “Neurogenesis # BrdU+ Cells” value in experiment [1] is given as 8.9 (X10E06)/mm3.
In the case of `OC(Cn1c2ccccc2c2ccccc21)Cn1c2ccc(Br)cc2c2cc(Br)ccc21` (centres unmarked) [S35], the “Neurogenesis # BrdU+ Cells” value in experiment [1] is 8.6 (X10E06)/mm3.
In the case of `OC(CNc1ccccc1)Cn1c2ccc(C(F)(F)F)cc2c2cc(C(F)(F)F)ccc21` (centres unmarked) [S75], on p70 (NAMPT), the Binding competition was found to be 2.5.
Take `COc1ccc(OCC2(Cn3c4ccc(Br)cc4c4cc(Br)ccc43)NN2)cc1` [S57]: in experiment [1], the “Neurogenesis # BrdU+ Cells” value is on record as 11.9 (X10E06)/mm3.
Regarding `COc1cccc(N(C)CC(O)Cn2c3ccc(Br)cc3c3cc(Br)ccc32)c1` (centres unmarked) [S1], in experiment [1], the “Neurogenesis # BrdU+ Cells” value was 10.8 (X10E06)/mm3.
In the case of `Fc1ccc([C@@H]2CCNC[C@H]2COc2ccc3c(c2)OCO3)cc1` [S120, Paxil, reference compound], at p70 (NAMPT), the Binding competition was determined as 1.3.
The same measure, in the same setting: for `CN(C)C[C@H](O)CN1c2ccccc2CCc2ccccc21` [S181] the value was 0.9.
On to `Brc1ccc2[nH]c3ccc(Br)cc3c2c1` [S162], for which the Binding competition on p70 (NAMPT) was 2.3.
As for `OC(CNc1cccc2ccccc12)Cn1c2ccccc2c2ccccc21` (centres unmarked) [S180], at p70 (NAMPT), the Binding competition was 3.2.
For the molecule `Brc1ccc2c(c1)c1cc(Br)ccc1n2CCNc1ccccc1` [S115], the Binding competition at p70 (NAMPT) worked out at 3.7.
As to `OC(CNC1CCCC1)Cn1c2ccc(Br)cc2c2cc(Br)ccc21` (centres unmarked) [S176], the Binding competition at p70 (NAMPT) was 4.1.
As to `OC(CCn1c2ccc(Br)cc2c2cc(Br)ccc21)CNc1ccccc1` (centres unmarked) [S26], in experiment [1], the “Neurogenesis # BrdU+ Cells” value is recorded as 7.5 (X10E06)/mm3.
Take `Cn1c2ccc(Br)cc2c2cc(Br)ccc21` [S163]: the Binding competition at p70 (NAMPT) was 2.5.
`C#Cc1ccc2c(c1)c1cc(C#C)ccc1n2CC(O)CNc1cccc(OC)c1` (centres unmarked) [S64]: in experiment [1], the “Neurogenesis # BrdU+ Cells” value is recorded as 8.6 (X10E06)/mm3.
`FC(CNc1ccccc1)Cn1c2ccc(Br)cc2c2cc(Br)ccc21` (centres unmarked) [S55]: the “Neurogenesis # BrdU+ Cells” value in experiment [1] is reported as 13.8 (X10E06)/mm3.
Take `CN(C)CCCN1c2ccccc2CCc2ccccc21.Cl` [S88, Imipramine, reference compound]: the “Neurogenesis # BrdU+ Cells” value in experiment [1] is 7.8 (X10E06)/mm3.
As to `COc1ccc(OCC(O)Cn2c3ccc(Br)cc3c3cc(Br)ccc32)cc1` (centres unmarked) [S49], the “Neurogenesis # BrdU+ Cells” value in experiment [1] is reported as 12.0 (X10E06)/mm3.
Regarding `O=C(Cn1c2ccc(Br)cc2c2cc(Br)ccc21)Nc1ccccc1` [S112], the Binding competition at p70 (NAMPT) was found to be 1.2.
`O=C(O)Cn1c2ccc(Br)cc2c2cc(Br)ccc21` [S165]: at p70 (NAMPT), the Binding competition is 1.3.
Consider `CC(NC(C)(C)C)C(=O)c1cccc(Cl)c1` (centres unmarked) [S125, Wellbutrin, reference compound], for which the Binding competition on p70 (NAMPT) is reported as 1.1.
